Laboratory results taken from ChEMBL document CHEMBL1201862, “PubChem BioAssay data set” (2004).
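Dose response: 5 concentrations. Exposure: 48 h. Format: 96-well plates. Endpoint: linear interpolation; highest concentration if not reached. GI50: concentration for 50% inhibition of growth.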 Active and inactive are the calls of the source. No stated cut-off is given here; in the data, active = GI50 up to about 1.1 µM and inactive = higher.

Tests used:
Assay in all cases: inhibition of tumour cell growth, NCI panel, 48 h
OVCAR-3 = system: OVCAR-3
OVCAR-5 = system: OVCAR-5
SN12C = system: SN12C
PC-3 = system: PC-3
SK-MEL-2 = system: SK-MEL-2
IGROV-1 = system: IGROV-1
CCRF-CEM = system: CCRF-CEM
ACHN = system: ACHN
SK-MEL-5 = system: SK-MEL-5
DLD-1 = system: DLD-1
MOLT-4 = system: MOLT-4
HCT-15 = system: HCT-15
Hs-578T = system: Hs-578T
COLO 205 = system: COLO 205
OVCAR-4 = system: OVCAR-4
SK-OV-3 = system: SK-OV-3
HCC 2998 = system: HCC 2998
SNB-19 = system: SNB-19
HT-29 = system: HT-29
LOX IMVI = system: LOX IMVI

With Cc1cc(/N=C2\C=C(Nc3cc(C)on3)C(=O)c3ccccc32)no1 the GI50 (OVCAR-3) was > 100 µM (inactive), the GI50 (OVCAR-5) was > 76 µM (inactive) and the GI50 (SN12C) was > 80.9 µM (inactive). For the same compound, the GI50 (PC-3) was > 100 µM (inactive), the GI50 (SK-MEL-2) was 17.1 µM (inactive) and the GI50 (IGROV-1) was 33.1 µM (inactive). The GI50 (CCRF-CEM) was > 100 µM (inactive), the GI50 (ACHN) was > 64.3 µM (inactive) and the GI50 (SK-MEL-5) was 1.82 µM (inactive). For the same compound, the GI50 (DLD-1) was > 100 µM (inactive), the GI50 (MOLT-4) was > 100 µM (inactive) and the GI50 (HCT-15) was 48.1 µM. For the same compound, the GI50 (Hs-578T) was 13.2 µM (inactive), the GI50 (COLO 205) was 31.3 µM (inactive) and the GI50 (OVCAR-4) was > 100 µM (inactive). For the same compound, the GI50 (SK-OV-3) was 77.8 µM (inactive), the GI50 (HCC 2998) was > 100 µM (inactive) and the GI50 (SNB-19) was 61 µM (inactive). The GI50 (HT-29) was 49.7 µM (inactive) and the GI50 (LOX IMVI) was 8.71 µM (inactive).
